Data published in article PMC7605213 (Journal of medicinal chemistry, 2020).
Marks after values point to notes of the source that are not given here.

Key:
[1] = mouse liver microsomes; values reported from the initial study ref 33; cited from earlier work
[2] = test system: malaria infection; settings: 100 mg/kg twice daily p.o. ref 33; cited from earlier work
[3] = mouse liver microsomes, 15, 30 and 60 min, tentative assignment

In the case of `CCN(CC)CCCC(C)Nc1cc(/C=C/c2ccc([N+](=O)[O-])cc2)nc2ccc(OC)cc12` (stereo not drawn) [UCF501], the “% remaining after 60 min” value [1] is listed as 47.8^a %, the “mice cured of malaria infection” value [2] is listed as 4/5 and the “metabolites / metabolic pathway identified by LC–MS” value [3] is listed as “N-deethylation of the tertiary amine (monodeethyl UCF501 and UCF501-M1), O-demethylation (UCF501-M2), oxidation of styrylquinoline (UCF501-M3), and the reduction of the nitro group”.
